Measurements published in US8921071B2, “Targeting poly-gamma-glutamic acid to treat Staphylococcus epidermidis and related infections” (priority 2005, dated 2014).
No end group written: not given here.

Tested on: S. epidermidis
Assay: Peptide bacterial killing assay
Assay type: cell-based, Staphylococcus epidermidis
Conditions: S. epidermidis Δcap versus wild-type; approximately 10^5 cells; 0-40 μg/ml peptide; 2 hours at 37° C.; survivors counted by plating
Procedure: S. epidermidis cultures were harvested, washed with PBS buffer, and resuspended in 10 mM sodium phosphate buffer (pH 7.0). Bacterial killing assays were performed using a final concentration of approximately 10^5 S. epidermidis cells in each sample. Antimicrobial peptides were dissolved in the following solutions: human β-defensin 3, 10 mM acetic acid, and LL-37, 10% acetonitrile with 0.1% trifluoroacetic acid. The bacteria were exposed to a range of antimicrobial peptide concentrations (0, 5, 10, 20, 30, and 40 μg/ml). An equal volume of the respective peptide dilution buffer was applied to control samples. Samples were incubated at 37° C. for 2 hours and appropriate dilution series of the samples were plated on TSB agar. Survivor S. epidermidis cells were enumerated after 24 hours of incubation at 37° C. The percentage of killed S. epidermidis was calculated using the formula (1−[CFUpeptide/CFUcontrol])×100.
Resistance to cationic antimicrobial peptides was determined by incubating washed S. epidermidis cells (approximately 10^5) with LL-37 or human β-defensin 3 in various concentrations of antimicrobial peptides for 2 hours at 37° C. Thereafter, S. epidermidis survivor cells were counted by plating. Results are shown as dose-response curves. […] Values of significance were calculated against the wild-type (for Δcap) and Δcap (for capBCAD) strains.

Substance	resistance of the cap mutant strain to antibacterial peptide
LL-37 (LLGDFFRKSKEKIGKEFKRIVQRIKDFLRNLVPRTES; Antibacterial peptide LL-37; UniProt P49913 134-170, looked up) [representative cationic antibacterial peptide from human skin and neutrophil specific granules]	significantly reduced resistance
human β-defensin 3 (GIINTLQKYYCRVRGGRCAVLSCLPKEEQIGKCSTRGRKCCRRKK; ends and bridges not checked; cysteine pairing not given here; UniProt P81534 23-67, looked up) [representative cationic antibacterial peptide from human skin and neutrophil specific granules]	significantly reduced resistance
